Legend:
Galectin-1 = Galectin-1 (Homo sapiens (Human), UniProt P09382); assay: Fluorescence anisotropy assay, inhibition of galectin / fluorescein tagged saccharide probe interaction; format: binding
Galectin-3 = Galectin-3 (Homo sapiens (Human), UniProt P17931); assay: as above; format: binding
Experimental: Experimental Procedures (Evaluation of Kd Values)
The affinity of Example 1-33 for galectins were determined by a fluorescence anisotropy assay where the compound was used as an inhibitor of the interaction between galectin and a fluorescein tagged saccharide probe as described Sörme, P., Kahl-Knutsson, B., Huflejt, M., Nilsson, U. J., and Leffler H. (2004) Fluorescence polarization as an analytical tool to evaluate galectin-ligand interactions. Anal. Biochem. 334: 36-47, (Sörme et al., 2004) and Monovalent interactions of Galectin-1 By Salomonsson, Emma; Larumbe, Amaia; Tejler, Johan; Tullberg, Erik; Rydberg, Hanna; Sundin, Anders; Khabut, Areej; Frejd, Torbjorn; Lobsanov, Yuri D.; Rini, James M.; et al, From Biochemistry (2010), 49(44), 9518-9532, (Salomonsson et al., 2010).

Galectin-1, sequence (P09382 whole entry): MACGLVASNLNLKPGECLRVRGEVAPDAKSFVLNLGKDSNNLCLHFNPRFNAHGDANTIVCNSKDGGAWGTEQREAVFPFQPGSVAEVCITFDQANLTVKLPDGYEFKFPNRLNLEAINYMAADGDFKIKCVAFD
Galectin-3, sequence (P17931 whole entry): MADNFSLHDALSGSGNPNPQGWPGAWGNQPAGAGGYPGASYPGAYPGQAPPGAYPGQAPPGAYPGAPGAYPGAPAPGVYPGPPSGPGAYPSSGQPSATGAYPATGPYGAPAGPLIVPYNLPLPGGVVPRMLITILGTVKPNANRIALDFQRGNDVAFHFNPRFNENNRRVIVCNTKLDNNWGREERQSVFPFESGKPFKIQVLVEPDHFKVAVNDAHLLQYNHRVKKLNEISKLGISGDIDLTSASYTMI

SMILES: OC[C@H]1O[C@H](Sc2cnc(C(F)(F)F)c(Br)c2)[C@H](O)[C@@H](n2cc(-c3nc(Cl)cs3)nn2)[C@H]1O [Example 1, 5-Bromo-6-trifluoromethyl-pyridine-3-yl 3-[4-(4-chlorothiazol-2-yl)-1H-1,2,3-triazol-1-yl]-3-deoxy-1-thio-α-D-galactopyranoside]
- Kd (Galectin-1): 110 nM
- Kd (Galectin-3): 250 nM

SMILES: OC[C@H]1O[C@H](Sc2cnc(C(F)(F)F)c(Br)c2)[C@H](O)[C@@H](n2cc(-c3nc(Br)cs3)nn2)[C@H]1O [Example 2, 5-Bromo-6-trifluoromethyl-pyridine-3-yl 3-[4-(4-bromothiazol-2-yl)-1H-1,2,3-triazol-1-yl]-3-deoxy-1-thio-α-D-galactopyranoside]
- Kd (Galectin-1): 160 nM
- Kd (Galectin-3): 580 nM

SMILES: N#Cc1ncc(S[C@H]2O[C@H](CO)[C@H](O)[C@H](n3cc(-c4nc(Cl)cs4)nn3)[C@H]2O)cc1Cl [Example 3, 5-Chloro-6-cyano-pyridine-3-yl 3-[4-(4-chlorothiazol-2-yl)-1H-1,2,3-triazol-1-yl]-3-deoxy-1-thio-α-D-galactopyranoside]
- Kd (Galectin-1): 95 nM
- Kd (Galectin-3): 420 nM

SMILES: N#Cc1ncc(Br)cc1S[C@H]1O[C@H](CO)[C@H](O)[C@H](n2cc(-c3nc(Cl)cs3)nn2)[C@H]1O [Example 4, 5-Bromo-2-cyano-pyridine-3-yl 3-[4-(4-chlorothiazol-2-yl)-1H-1,2,3-triazol-1-yl]-3-deoxy-1-thio-α-D-galactopyranoside]
- Kd (Galectin-1): 85 nM
- Kd (Galectin-3): 200 nM

SMILES: N#Cc1ncc(Cl)cc1S[C@H]1O[C@H](CO)[C@H](O)[C@H](n2cc(-c3nc(Cl)cs3)nn2)[C@H]1O [Example 5, 5-Chloro-2-cyano-pyridine-3-yl 3-[4-(4-chlorothiazol-2-yl)-1H-1,2,3-triazol-1-yl]-3-deoxy-1-thio-α-D-galactopyranoside]
- Kd (Galectin-1): 95 nM
- Kd (Galectin-3): 220 nM

SMILES: N#Cc1ncc(S[C@H]2O[C@H](CO)[C@H](O)[C@H](n3cc(-c4nc(Cl)cs4)nn3)[C@H]2O)cc1Br [Example 6, 5-Bromo-6-cyano-3-pyridyl 3-[4-(4-chlorothiazol-2-yl)-1H-1,2,3-triazol-1-yl]-3-deoxy-1-thio-α-D-galactopyranoside]
- Kd (Galectin-1): 68 nM
- Kd (Galectin-3): 250 nM

SMILES: OC[C@H]1O[C@H](Sc2ccc(Cl)c(Cl)c2)[C@H](O)[C@@H](n2cc(-c3csc(Cl)n3)nn2)[C@H]1O [Example 7, 3,4-Dichlorophenyl 3-[4-(2-chlorothiazol-4-yl)-1H-1,2,3-triazol-1-yl]-3-deoxy-1-thio-α-D-galactopyranoside]
- Kd (Galectin-1): 490 nM
- Kd (Galectin-3): 1400 nM

SMILES: OC[C@H]1O[C@H](Sc2ccc(Cl)c(Cl)c2)[C@H](O)[C@@H](n2cc(-c3csc(O)n3)nn2)[C@H]1O [Example 12, 3,4-Dichlorophenyl 3-deoxy-3-[4-(2-hydroxythiazol-4-yl)-1H-1,2,3-triazol-1-yl]-1-thio-α-D-galactopyranoside]
- Kd (Galectin-1): 58 nM
- Kd (Galectin-3): 8600 nM

SMILES: N#Cc1ncc(S[C@H]2O[C@H](CO)[C@H](O)[C@H](n3cc(-c4csc(O)n4)nn3)[C@H]2O)cc1Cl [Example 13, 5-Chloro-6-cyano-pyridine-3-yl 3-deoxy-3-[4-(2-hydroxythiazol-4-yl)-1H-1,2,3-triazol-1-yl]-1-thio-α-D-galactopyranoside]
- Kd (Galectin-1): 38 nM
- Kd (Galectin-3): 8000 nM

SMILES: N#Cc1ncc(Br)cc1S[C@H]1O[C@H](CO)[C@H](O)[C@H](n2cc(-c3csc(O)n3)nn2)[C@H]1O [Example 14, 5-Bromo-2-cyano-pyridine-3-yl 3-deoxy-3-[4-(2-hydroxythiazol-4-yl)-1H-1,2,3-triazol-1-yl]-1-thio-α-D-galactopyranoside]
- Kd (Galectin-1): 33 nM
- Kd (Galectin-3): 2600 nM

SMILES: N#Cc1ncc(S[C@H]2O[C@H](CO)[C@H](O)[C@H](n3cc(-c4csc(O)n4)nn3)[C@H]2O)cc1Br [Example 15, 5-Bromo-6-cyano-3-pyridyl 3-deoxy-3-[4-(2-hydroxythiazol-4-yl)-1H-1,2,3-triazol-1-yl]-1-thio-α-D-galactopyranoside]
- Kd (Galectin-1): 19 nM
- Kd (Galectin-3): 2800 nM

SMILES: N#Cc1ncc(Cl)cc1S[C@H]1O[C@H](CO)[C@H](O)[C@H](n2cc(-c3csc(O)n3)nn2)[C@H]1O [Example 16, 5-Chloro-2-cyano-3-pyridyl 3-deoxy-3-[4-(2-hydroxythiazol-4-yl)-1H-1,2,3-triazol-1-yl]-1-thio-α-D-galactopyranoside]
- Kd (Galectin-1): 6 nM
- Kd (Galectin-3): 2200 nM

SMILES: OC[C@H]1O[C@H](Sc2cnc(C(F)(F)F)c(Cl)c2)[C@H](O)[C@@H](n2cc(-c3csc(O)n3)nn2)[C@H]1O [Example 17, 5-Chloro-6-trifluoromethyl-pyridin-3-yl 3-deoxy-3-[4-(2-hydroxythiazol-4-yl)-1H-1,2,3-triazol-1-yl]-1-thio-α-D-galactopyranoside]
- Kd (Galectin-1): 28 nM
- Kd (Galectin-3): 2800 nM

SMILES: OC[C@H]1O[C@H](Sc2cc(Cl)c(F)c(Cl)c2)[C@H](O)[C@@H](n2cc(-c3csc(O)n3)nn2)[C@H]1O [Example 18, 3,5-Dichloro-4-fluoro-phenyl 3-deoxy-3-[4-(2-hydroxythiazol-4-yl)-1H-1,2,3-triazol-1-yl]-1-thio-α-D-galactopyranoside]
- Kd (Galectin-1): 27 nM
- Kd (Galectin-3): 9700 nM

SMILES: OC[C@H]1O[C@H](Sc2cc(Cl)c(Cl)c(Cl)c2)[C@H](O)[C@@H](n2cc(-c3csc(O)n3)nn2)[C@H]1O [Example 20, 3,4,5-trichlorophenyl 3-deoxy-3-[4-(2-hydroxythiazol-4-yl)-1H-1,2,3-triazol-1-yl]-1-thio-α-D-galactopyranoside]
- Kd (Galectin-1): 56 nM
- Kd (Galectin-3): 6000 nM

SMILES: OC[C@H]1O[C@H](Sc2cc(Br)c(F)c(Br)c2)[C@H](O)[C@@H](n2cc(-c3csc(O)n3)nn2)[C@H]1O [Example 21, 3,5-dibromo-4-fluorophenyl 3-deoxy-3-[4-(2-hydroxythiazol-4-yl)-1H-1,2,3-triazol-1-yl]-1-thio-α-D-galactopyranoside]
- Kd (Galectin-1): 50 nM
- Kd (Galectin-3): 4600 nM

SMILES: N#Cc1ccc(S[C@H]2O[C@H](CO)[C@H](O)[C@H](n3cc(-c4csc(O)n4)nn3)[C@H]2O)cc1Br [Example 22, 3-Bromo-4-cyanophenyl 3-deoxy-3-[4-(2-hydroxythiazol-4-yl)-1H-1,2,3-triazol-1-yl]-1-thio-α-D-galactopyranoside]
- Kd (Galectin-1): 63 nM
- Kd (Galectin-3): 6000 nM

SMILES: OC[C@H]1O[C@H](Sc2cnc(C(F)(F)F)c(Br)c2)[C@H](O)[C@@H](n2cc(-c3csc(O)n3)nn2)[C@H]1O [Example 23, 5-Bromo-6-trifluoromethyl-3-pyridyl 3-deoxy-3-[4-(2-hydroxythiazol-4-yl)-1H-1,2,3-triazol-1-yl]-1-thio-α-D-galactopyranoside]
- Kd (Galectin-1): 32 nM
- Kd (Galectin-3): 3100 nM

SMILES: OC[C@H]1O[C@H](Sc2ccc(C(F)(F)F)c(Cl)c2)[C@H](O)[C@@H](n2cc(-c3csc(O)n3)nn2)[C@H]1O [Example 24, 3-Chloro-4-trifluoromethylphenyl 3-deoxy-3-[4-(2-hydroxythiazol-4-yl)-1H-1,2,3-triazol-1-yl]-1-thio-α-D-galactopyranoside]
- Kd (Galectin-1): 71 nM
- Kd (Galectin-3): 6500 nM

SMILES: Cc1ccc(S[C@H]2O[C@H](CO)[C@H](O)[C@H](n3cc(-c4csc(O)n4)nn3)[C@H]2O)cc1Cl [Example 26, 3-Chloro-4-methylphenyl 3-deoxy-3-[4-(2-hydroxythiazol-4-yl)-1H-1,2,3-triazol-1-yl]-1-thio-α-D-galactopyranoside]
- Kd (Galectin-1): 82 nM
- Kd (Galectin-3): 6600 nM
